Key:
E-selectin [1] = test: LPS-induced E-selectin expression in aortic endothelium; assay type: in vivo, BALB/c mice; conditions: intravenous, 2 hr before LPS, aortas after 5 hr
Protocol: FIG. 14 is a representation showing (A) effect of MP3 on in vivo inflammatory response measured as delayed type hypersensitivity (DTH) to sheep erythrocytes and LPS-induced influx of neutrophils and mononuclear cells in the peritoneal cavity in BALB/c mice. In the DTH experiments mice were injected with sheep erythrocytes subcutaneously, challenged with the antigen in the hind foot pad 6 days later and the amount of foot pad swelling measured 48 hr later. One hour prior to challenge mice were given 10 mg/kg body weight of β-oxa fatty acid in 7% w/v, DMSO as vehicle intraperitoneally. For the peritoneal cavity inflammation, mice were given intravenously 40 mg/kg MP3 intravenously and 6 hr later injected with LPS intraperitoneally. The cellular infiltrates were examined 24 and 72 hr later. The data, expressed as % of control, are presented as mean±SEM of 10 and 5 mice for DTH and peritoneal inflammation, respectively. […] The data, expressed as % of control, are presented as mean±SEM of ten mice per group and is representative of two experimental runs. […]
The LPS-induced expression of E-selectin in the aortic endothelium of BALB/c mice was determined following injection of 50 μg LPS intraperitoneally and aortas encompassing the ascending part of the aortic arch through to the bifurcation to the common iliac arteries isolated after 5 hr. […]

E-selectin [2] = test: Adhesion molecule expression on HUVEC (ELISA, mRNA slot blot); assay type: cell-based, human; conditions: for Suppression of TNF-α-induced E-selectin expression on HUVEC: 60 min pre-treatment
Protocol: FIG. 13 is a representation showing effect of MP3 (β-oxa-23:4n-6) and 20:4n-6 on time-related changes in TNF-α-induced E-selectin, ICAM-1 and VCAM-1 expression on HUVEC. HUVEC were pre-treated with 20 μmol/l β-oxa-23:4n-6 (closed triangles), 20 μmol/l 20:4n-6 (open squares), or DPC (control) for 60 min and then further incubated with TNF-α (125 U/200 μl medium) for up to 24 hr. The expression of E-selectin, ICAM-1 and VCAM-1 adhesion molecules was determined by ELISA. The results are expressed as % of control and represent the mean±SEM of three separate experiments each performed in triplicate. * p<0.05, **p<0.01, ***p<0.001, for significant differences between pre-treatment with fatty acid and corresponding control at a particular time point (one-way analysis of variance followed by the Dunnett test for multiple comparisons). Inset: The effect of β-oxa-23:4n-6 on TNF-α-induced expression of E-selectin mRNA in HUVEC. HUVEC were pre-incubated with β-oxa-23:4n-6 (20 μmol/l) or DPC (control) in 1 ml of medium at 37° C. for 60 min. After the addition of TNF-α, the cells were further incubated at 37° C. for 2 hr. E-selectin mRNA expression was then determined and the results expressed as relative %. Results are the mean±SEM of three separate experiments each performed in quadruplicate. *p<0.0001, for significant differences between pre-treatment with β-oxa-23:4n-6, and control (two-tailed Student's t-test for unpaired data).
HUVEC were stimulated with TNF, bacterial lipopolysaccharide (LPS) or PMA for 24 hr. Expression of E-selectin, ICAM-1 and VCAM-1 was determined by an enzyme-linked immunosorbent assay (ELISA) or as mRNA using a slot blot technique (Huang et al 1997 supra).

p38 = test: TNF-stimulated MAP kinase activity in HUVEC; assay type: cell-based, human; conditions: HUVEC pre-treated with the fatty acid
Protocol: (§1) ERK and p38 were precipitated with anti-ERK2 (C-14, sc-154) and anti-p38 (C-20, sc-535) antibody, respectively (Santa Cruz Biotech) and the activity determined using myelin basic protein as a substrate (Hii et al, 1995 supra, Hii et al, 1998 supra). JNK activity was determined in a solid phase assay using GST c-Jun (residues-1-79) as a substrate (Hii et al, 1995 supra, Hii et al, 1998 supra).

ERK = test: TNF-stimulated MAP kinase activity in HUVEC; assay type: cell-based, human; conditions: HUVEC pre-treated with the fatty acid
Protocol: as §1

JNK = test: TNF-stimulated MAP kinase activity in HUVEC; assay type: cell-based, human; conditions: HUVEC pre-treated with the fatty acid
Protocol: as §1

IKK = test: TNF-stimulated activation of IKK in HUVEC (immunoprecipitation kinase assay); assay type: cell-based, human; conditions: 20 μmol/l, 30 min, TNF 5 min
Protocol: FIG. 17 is a representation showing (A) the effect of MP3 (β-oxa 23:4n-6) and DHA on TNF-induced degradation of IκBα in HUVEC. Cells were pre-treated with the fatty acids (20 μmol/l) for 30 min and then stimulated with TNF (125 U/ml) for 10 min. After cell lysis the proteins were analyzed by Western blots using anti-IκBα antibodies. (B) The effects of β-oxa-23:4n-6 on TNF-induced activation of transcriptional factor, NFκB in HUVEC. Cells were pre-treated with β-oxa-23:4n-6 (20 μmol/l) for 30 min and then stimulated with TNF for 2 hr. After cell lysis, nuclear fractions were prepared, nuclear proteins separated by SDS PAGE (12% w/v gel), transferred to nitrocellulose and probed with an anti-NFκB p65 antibody (Santa Cruz). […] (C) The effect of β-oxa 23:4n-6 on TNF-stimulated activation of IKK. Cells were pre-treated with β-oxa 23:4n-6 (20 μmol/l) for 30 min and then stimulated with TNF for 5 min. After cell lysis IKK was immunoprecipitated with anti-IKKα antibody and kinase activity determined.
IKK was immunoprecipitated with anti-IKKα (M-280) antibody (sc-7182, Santa Cruz, Biotech) and kinase activity determined using GST-IκBA (residues 5-55) as previously described (Lee et al, 1998 supra). Proteins were fractionated by SDS PAGE and radioactivity associated with GST-IκBα (residues 5-55) determined using an instant imager.

Effect on ability of TNF to stimulate p38 (p38): did not affect | Effect on ability of TNF to stimulate ERK (ERK): did not affect | Effect on ability of TNF to stimulate JNK (JNK): did not affect | TNF-stimulated activation of IKK / IκB kinase-NFκB signalling pathway (IKK): inhibits the ability of TNF to activate | TNF-stimulated activation of IKK / IκB kinase-NFκB signalling pathway (IKK; listed as β-oxa 23:4n-6): significantly inhibited
SMILES: CCCCC/C=C\C/C=C\C/C=C\C/C=C\CCCCOCC(=O)O [MP3, β-oxa-23:4n-6]
LPS-induced E-selectin expression in aortic endothelium (E-selectin [1]): effective in vivo at suppressing LPS-stimulated up-regulation of E-selectin expression | LPS-induced E-selectin expression in aortic endothelium (E-selectin [1]; listed as β-oxa-23:4n-6): significant reduction in LPS-induced E-selectin expression | TNF-α-induced expression of E-selectin mRNA (E-selectin [2]; 20 μmol/l, 60 min, TNF-α 2 hr): substantially depressed | Suppression of TNF-α-induced E-selectin expression on HUVEC (E-selectin [2]; 20 μmol/l): better than docosahexaenoic acid (22:6n-3) at suppressing | Suppression of TNF-α-induced E-selectin expression on HUVEC (E-selectin [2]; 20 μmol/l, listed as β-oxa-23:4n-6): inhibited the expression | Time of cytokine treatment at maximum inhibition of E-selectin expression (E-selectin [2]; 20 μmol/l, TNF-α): 4 h | Inhibition of LPS and PMA-induced up-regulation of E-selectin (E-selectin [2]; HUVEC): inhibited LPS and PMA-induced, up-regulation
